In US10758607B2, “Respiratory syncytial virus having cleavage-resistant G protein and related materials and methods” (The Research Institute at Nationwide Children's Hospital, priority 2015, dated 2020):
“Also recorded” adds a separate entry of the source. Where a SMILES comes first, the peptide text is derived from it. The star is where a group is joined. Cbz = O=C(OCc1ccccc1)*; CHN2 = [N-]=[N+]=C*; tBu = CC(C)(C)*

Experiments:
[1] = test system: RSV G protein cleavage in Vero cells; test: Cell-surface RSV G protein cleavage in rgRSV-infected cells treated with protease inhibitors (biotinylation, immunoblot with mAb L9); type: cell-based; settings: RSV-infected HeLa and Vero cells; 0.1 to 100 μM at 6 hpi; 24 hpi
Protocol: To elucidate the class of protease responsible for G protein cleavage in Vero cells, cells were treated with increasing concentrations of protease inhibitors after inoculating with recombinant green fluorescent protein expressing RSV (rgRSV). Cells were incubated with rgRSV for 2 h with tipping at 37° C. before replacing inoculum with fresh cell culture medium. Drugs were added at different times post infection. In each case, uninfected, no drug, and vehicle (at the highest concentration used) were included in all experiments as controls. In all experiments at 24 hpi, cell surface proteins were biotinylated, cells lysed and equivalent amounts of protein from each sample were mixed with streptavidin beads.
Aprotinin, a serine protease inhibitor, leupeptin, a serine/cysteine protease inhibitor; or E-64, a cysteine protease inhibitor were added to the cell culture media (3.125 to 50 μg/ml) from 2-24 hpi. The most likely proteins to be incorporated into the virions are cell surface proteins, so the cell surfaced was biotinylated, proteins isolated from lysed cells with streptavidin beads, and immunobloted with L9, a mAb to the G protein, as a probe (FIG. 1A). In the untreated and vehicle treated samples most of the cell surface G protein was cleaved (˜55 kDa), leaving only a small portion of full length (˜90 kDa) G protein. […] Since both leupeptin and E64 block the activity of cysteine proteases, the protease responsible for cleavage of the G protein in Vero cells is a cysteine protease.
To narrow the field of cysteine proteases, cells were treated at 6 hpi with a more specific cysteine protease inhibitor, ALLM (0.1 to 100 μM).
RSV-infected HeLa and Vero cells were treated with a cathepsin B inhibitor, CA-074 (0.1 to 100 μM), or a cathepsin L inhibitor, cathepsin L inhibitor III (0.1 to 100 μM) 6 hpi.
Cathepsin L is a protease present primarily in the interior of the lysosome and is optimally active at acidic pH. Vero cells expressing the G protein were treated with chloroquine to raise the pH of the lysosome. […] To generate FIG. 4C, cells were inoculated with RSV or mock inoculated. 6 hpi the cells were treated with increasing concentrations of chloroquine. 24 hpi cells were biotinylated and G protein assayed
HeLa and Vero cells were rgRSV (MOI: 1) or mock inoculated. 2 hpi the inoculum was replaced with fresh complete medium, and 4 hpi cells the medium was changed again to complete medium with 2-fold dilutions of these protease inhibitors (Sigma-Aldrich, St. Louis, Mo.), dissolved in water: Aprotinin (3.125 to 50 μg/ml); Leupeptin (6.25 to 100 μg/ml); E-64 (6.25 to 100 μg/ml); or equal volumes of water in medium. In other experiments, cells were treated at 6 hpi with: 10-fold dilutions (0.1 to 100 μM) of: Cathepsin inhibitor I (Calbiochem); ALLM (Santa Cruz, Dallas, Tex.); Chloroquine diphosphate salt (Sigma Aldrich) or equivalent volumes of vehicle (water); CA-074 (Calbiochem); Cathepsin L inhibitor III (Calbiochem); or an equal volume of vehicle (DMSO) in medium.
At 24 hpi cells were biotinylated with Ez-link Sulfo-NHS-LC-Biotin (Thermo Fisher). Cells were lysed with lysis buffer containing 150 mM NaCl, 1% Triton X-100, 50 mM Tris, 0.1% SDS, and 1× Halt protease cocktail inhibitor (Thermo Fisher). Proteins were quantified using BCA protein assay kit (Pierce, Waltham, Mass.), and equal amounts of protein were added to high capacity streptavidin agarose beads (Thermo Fisher). The mixtures were rotated for 1 h at 4° C., the beads were pelleted and washed with lysis buffer (without protease cocktail inhibitor), NuPage LDS sample buffer was added, and boiled for 5 min, separated by NuPAGE Novex 4-12% bis-tris protein gels and transferred to nitrocellulose in an iBlot transfer stack, using the iBlot transferring system (Life Technologies) for immunoblot analysis. […]

[2] = test system: G protein from Vero cell virions; test: Virion-associated G protein of rgRSV grown in Vero cells with cathepsin L inhibitor (immunoblot); type: cell-based; settings: for virion-associated G protein cleavage: rgRSV grown in Vero cells, 0.5 μM inhibitor at 7 hpi, harvested 72 hpi
Protocol: To verify that cathepsin L is sufficient to cleave the G protein, rgRSV was grown in Vero cells in the presence of cathepsin L inhibitor or vehicle. Viruses were harvested and pelleted through a 35% sucrose cushion to separate them from cathepsin L inhibitor. Viruses were resuspended in buffer with pH5.5 and treated with cathepsin L or vehicle. […] Vero cells were inoculated with rgRSV or mock inoculated for 2 h, at which time the inoculum was replaced with fresh medium. Vero cells were treated with medium containing 0.5 μM cathepsin L inhibitor III at 7 hpi. 72 hpi the medium was harvested and virus was pelleted through a 35% sucrose cushion. The pelleted Vero-derived (VeD) virus was resuspended in buffer (pH5.5) containing 50 ng/d cathepsin L or vehicle.
(§1) At 72 hpi the medium was collected and virus pelleted through a 35% sucrose cushion to partially purify and concentrate it. The virus pellet was resuspended and half was further purified by linear sucrose density gradient. The G protein from these purified virions was analyzed by immunoblot. The G protein from HeLa cell virions migrated at 90 kDa and was not affected by the inhibitor (FIG. 5A). […] FIG. 5A was generated by inoculating HeLa or Vero cells for 2 h and treating them with cathepsin L inhibitor or DMSO beginning at 8 hpi.
The effect of protease inhibitors on the infectivity of RSV produced by Vero and HeLa cells was tested by inoculating cells and 2 hpi media was changed. At 7 hpi medium containing […] cathepsin L inhibitor III (Calbiochem, San Diego, Calif.) or an equal volume of the vehicle, DMSO was added to the cells. […] Fractions containing virus were separated by SDS-PAGE and G protein detected by immunoblot using a mAb, L9 (Edward Walsh, University of Rochester).

[3] = test system: G protein from HeLa cell virions; test: Virion-associated G protein of rgRSV grown in HeLa cells with cathepsin L inhibitor (immunoblot); type: cell-based; settings: inhibitor beginning at 8 hpi; virus collected 72 hpi; G migrated at 90 kDa
Protocol: as §1
The effect of protease inhibitors on the infectivity of RSV produced by Vero and HeLa cells was tested by inoculating cells and 2 hpi media was changed. At 7 hpi medium containing […] cathepsin L inhibitor III (Calbiochem, San Diego, Calif.) or an equal volume of the vehicle, DMSO was added to the cells. 72 hpi virus was harvested as described above, but instead of aliquoting and snap freezing, 15 ml of virus-containing medium was layered on top of 15 ml of 35% sucrose cushion in 1× Hanks Balanced Salt Solution, with calcium and magnesium, and centrifuged overnight at 4° C. and 26,000×g in an F14-14×50cy rotor for Sorvall Lynx 6000 (Thermo Fisher) to remove the drug and partially purify the virus. […] Fractions containing virus were separated by SDS-PAGE and G protein detected by immunoblot using a mAb, L9 (Edward Walsh, University of Rochester).

HAE cultures = test: Infection of HAE cultures by rgRSV produced in the presence of cathepsin L inhibitor; type: cell-based, human
Protocol: as §1
The remaining virus that had been partially purified through the 35% sucrose cushion was titrated on HeLa cells. Equivalent amounts of infectious virus, determined on HeLa cells, were used to inoculate HAE cultures. […] For FIG. 5B, equivalent amount of infectious virus, determined by titration on HeLa cells, was used to inoculate HAE cultures. 48 hpi green cells were counted. *p<0.0001 (unpaired, 2-tailed t-test).
Primary, well-differentiated human airway epithelial (HAE) cultures were generated from human airway tissue (Fulcher et al., Methods Mol Med (2005) 107:183-206). For infection experiments they were grown on collagen coated Trans-well inserts (Corning Incorporated). […]
The effect of protease inhibitors on the infectivity of RSV produced by Vero and HeLa cells was tested by inoculating cells and 2 hpi media was changed. […] Fractions containing virus were separated by SDS-PAGE and G protein detected by immunoblot using a mAb, L9 (Edward Walsh, University of Rochester).
The apical surface of well-differentiated HAE cultures in Trans-wells was washed with DPBS for 2 h and the basal medium changed before equivalent pfu (titrated in HeLa cells), between 2,000 and 10,000 pfu, depending on the HAE culture source, were diluted in HAE medium and added to the apical chamber of the Trans-well. […] Fluorescent (green) cells were visualized with an EVOS fl inverted fluorescence microscope (Life Technologies) and counted in HeLa cultures at 24 hpi and on HAE cultures at 48 hpi. Three or more experiments were pooled and analyzed together.

CC(C)(C)Oc1ccc(C[C@H](NC(=O)[C@H](Cc2ccccc2)NC(=O)OCc2ccccc2)C(=O)C=[N+]=[N-])cc1 [cathepsin L inhibitor III] (Cbz-Phe-Tyr(tBu)-CHN2)
G protein cleavage (cell surface G protein) [1]: prevention of cleavage; also recorded: almost completely prevented G protein cleavage | migration of G protein from Vero cell virions ([2]; inhibitor beginning at 8 hpi, virus collected 72 hpi, without inhibitor primarily 55 kDa): converted to 90 kDa | virion-associated G protein cleavage [2]: cleavage is prevented | virion-associated G protein cleavage ([2]; listed as cathepsin L inhibitor): cleavage prevention | migration of G protein from HeLa cell virions [3]: not affected | ability of Vero-derived virus to infect HAE cells (HAE cultures; inhibitor present during viral production): increasing the ability of Vero-derived virus to infect HAE cells | effect on ability of HeLa grown virus to infect HAE cultures (HAE cultures; inhibitor present during virus production in HeLa, green cells counted 48 hpi): little, if any, effect | increase in ability of Vero-grown virus to infect HAE cells (HAE cultures; inhibitor present during virus production in Vero, green cells counted 48 hpi, vs DMSO): 7 fold
